Values quoted from earlier work in patent US20010006686A1, “INFLAMMATORY MEDIATION OBTAINED FROM ATRACTYLODES LANCEA” (priority 1999, published 2001).

Target: T1, cyclooxygenase-1 (Ovis aries, UniProt P05979)
T1 sequence (P05979 25-600): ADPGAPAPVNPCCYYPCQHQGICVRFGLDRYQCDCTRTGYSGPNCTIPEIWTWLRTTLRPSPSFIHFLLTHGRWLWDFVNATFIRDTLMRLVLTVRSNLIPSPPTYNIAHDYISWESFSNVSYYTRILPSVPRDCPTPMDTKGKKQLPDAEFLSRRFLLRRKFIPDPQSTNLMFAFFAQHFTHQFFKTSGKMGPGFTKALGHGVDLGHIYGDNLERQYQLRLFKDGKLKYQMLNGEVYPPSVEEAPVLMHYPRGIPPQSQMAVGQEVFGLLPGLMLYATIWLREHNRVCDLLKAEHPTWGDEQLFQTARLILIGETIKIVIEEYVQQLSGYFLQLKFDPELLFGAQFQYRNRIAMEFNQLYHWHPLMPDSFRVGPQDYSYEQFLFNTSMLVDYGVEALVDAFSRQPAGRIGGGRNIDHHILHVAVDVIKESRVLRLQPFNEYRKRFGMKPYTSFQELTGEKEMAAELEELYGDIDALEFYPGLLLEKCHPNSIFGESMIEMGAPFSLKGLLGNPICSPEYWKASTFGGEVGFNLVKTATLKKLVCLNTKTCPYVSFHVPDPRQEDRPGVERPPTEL
Conditions: Resch, et al., J. Nat. Prod., 61, 347-350 (1998)

CC(C)=CCCC1(C)C=Cc2cc(O)cc(C)c2O1 (stereo not shown) [atractylochromene]
inhibitory effects on COX-1 activity (in words): significant COX-1 inhibitory effects
